Results from publication PMC9879403, “Oncolytic strategy using new bifunctional HDACs/BRD4 inhibitors against virus-associated lymphomas” (PLOS Pathogens, 2023).
Like-named read-outs stand apart in the source and are kept apart here.

How the values were obtained:
[1] = system: JSC-1; assay: WST-1 cytotoxicity assay, JSC-1 (KSHV+ PEL); assay type: cell-based; conditions: 72 h
Description: (§1) Fig 2 Identification of newly synthesized dual inhibitors with anti-PEL activities. (A) The binding mode of (+)-JQ1 with BRD4^BD1 (PDB: 3MXF). BRD4^BD1 is shown as hot pink cartoon with gray surface. Asn140 in BRD4^BD1 is shown as sticks and colored in following pattern: atom C hot pink, atom N dark blue, and atom O yellow. (+)-JQ1 is shown as sticks and colored in following patten: atom C hot pink, atom N dark blue, atom O yellow, atom S golden, and atom Cl green. The solvent exposed region (SEG) of (+)-JQ1 are indicated with white arrow. (B) The binding modes of SAHA and entinostat with HDAC2 (PDB: 3MAX). HDAC2 is shown as blue cartoon with gray surface. Asp181 and His183 in HDAC2 are shown as sticks and colored in following pattern: atom C blue, atom N dark blue, and atom O yellow. The catalytic zinc ion in the active site of HDAC2 is shown as black sphere. SAHA is shown as sticks and colored in following pattern: atom C green, atom N dark blue, and atom O yellow. Entinostat is shown as sticks and colored in following pattern: atom C hot pink, atom N dark blue, and atom O yellow. The SEG of SAHA or entinostat is indicated with white arrow. Hydrogen bonds (H-bonds) are presented by red dash lines. (C) The HDACs/BRD4 dual inhibitors 002-011 were designed by fusing the key pharmacophores of (+)-JQ1 (pink) and HDAC inhibitors (blue), SAHA or entinostat, via various chemical linkers (green). (D) Anti-PEL activities of the new compounds. Five KSHV positive and two KSHV negative lymphoma cell lines were treated with indicated concentrations of these compounds for 72 h. Then the cytotoxicity was determined using the WST-1 assay. (+)-JQ1, SAHA and entinostat were used for the comparisons as single inhibitors. The CC50 for each compound was calculated using GraphPad Prism 5.0 software. Error bars represent S.D. for 3 independent experiments.
(§2) Fig 4 Identification of anti-PEL activities for compound 009 stereoisomers. (A) The chemical structures of anti-HDACs/BRD4 bifunctional molecules 009P1 and 009P2, as well as anti-HDACs or anti-BRD4 mono-functional molecules 009N1, 009N2, 009N3, and 009N4. (B-C) Four KSHV+ PEL cell lines were treated with indicated concentrations of 009P1, 009P2 or 009N1-N4 for 72 h, then the cytotoxicity was determined using the WST-1 assay. (D-I) BCBL-1 cells were treated with these compounds at the respective 2× CC50 for 24 h, then cell cycle (D-F) and apoptosis (G-I) were measured by flow cytometry analysis. Error bars represent S.D. for 3 independent experiments, ** = p<0.01 (vs vehicle control).
(§3) The cell viability following treatment with compounds was assessed by the WST-1 assay (Roche, Indianapolis, Indiana, USA) according to the manufacturer’s protocol as described previously. The absorbance signal was measured using a microplate reader (Biotek Synergy 2). The 50% cytotoxic concentration (CC50) for each compound was calculated from these dose-response curves using the software GraphPad Prism v5.0. Data were normalized as the fold change compared to the DMSO control.

[2] = system: BCP-1; assay: WST-1 cytotoxicity assay, BCP-1 (KSHV+ PEL); assay type: cell-based; conditions: BCP-1, 72 h
Description: as §1, §2, §3

[3] = system: BC-1; assay: WST-1 cytotoxicity assay, BC-1 (KSHV+ PEL); assay type: cell-based; conditions: Homo sapiens, BC1, 72 h
Description: as §1, §2, §3

[4] = system: BCBL-1; assay: WST-1 cytotoxicity assay, BCBL-1 (KSHV+ PEL); assay type: cell-based; conditions: BCBL1, 72 h
Description: as §1, §2, §3

[5] = system: HDACs; assay: HDACs signaling by Western blot (H3K9Ac, H4K9Ac, Acetyl-tubulin); assay type: cell-based; conditions: BCBL-1 cells, 48 h, Western blot
[6] = system: BRD4; assay: BRD4 signaling by Western blot (c-Myc expression); assay type: cell-based; conditions: BCBL-1 cells, 48 h, Western blot
[7] = WST-1 cytotoxicity assay, BL-41 (KSHV negative lymphoma); assay type: cell-based; conditions: human
Description: as §1, §3

[8] = system: HUVEC; assay: WST-1 cytotoxicity on primary cells HUVEC; assay type: cell-based, human
Protocol: as §3
Supplementary file ppat.1011089.s006.tif: S5 Fig Cytotoxicity of tested compounds on HUVEC. The primary cells HUVEC were treated with indicated concentrations of compounds for 72 h, then cell viability was assessed using the WST-1 assay. The CC50 for each compound was calculated from the dose-response curves using Graphpad Prism 5.0 software. Data was normalized as the fold change compared to the DMSO control. (TIF) Click here for additional data file.

[9] = WST-1 cytotoxicity assay, BJAB (KSHV negative lymphoma); assay type: cell-based; conditions: human
Description: as §1, §3

[10] = system: BJAB.219; assay: WST-1 cytotoxicity assay, BJAB.219 (KSHV-infected lymphoma); assay type: cell-based; conditions: 50% cytotoxic concentration, 72 h, WST-1; read-out: KSHV-infected lymphomas CC50, BJAB.219
Description: as §1
BCBL-1 and iSLK.219 cells were kindly provided by Dr. Pinghui Feng (University of Southern California). BL-41, BJAB, BCP-1, BC-1, BC-3, JSC-1, HUVEC cells were purchased from American Type Culture Collection (ATCC), and cultured as recommended by the manufacturer. For making BJAB.219 cells, BJAB cells were infected with rKSHV.219 stock by spinoculation as previously reported by centrifugation at 1500×g for 60 min [31]. Then, puromycin (10 μg/ml) was added into the medium at 72 h post-infection and the medium containing puromycin was replaced twice a week. After 6-week high concentration of puromycin selection, BJAB.219 cells were then cultured in the medium with 0.5 μg/ml puromycin.
The cell viability following treatment with compounds was assessed by the WST-1 assay (Roche, Indianapolis, Indiana, USA) according to the manufacturer’s protocol as described previously. The absorbance signal was measured using a microplate reader (Biotek Synergy 2). […]

SMILES: Cc1sc2c(c1C)C(c1ccc(Cl)cc1)=N[C@H](CC(=O)O[C@H](C)c1ccc(C(=O)Nc3ccccc3N)cc1)c1nnc(C)n1-2 [009N1, (R)-1-(4-((2-aminophenyl)carbamoyl)phenyl)ethyl 2-((R)-4-(4-chlorophenyl)-2,3,9-trimethyl-6H-thieno[3,2-f][1,2,4]triazolo[4,3-a][1,4]diazepin-6-yl)acetate]
- CC50 ([1]; read-out: CC50, JSC-1): > 10000 nM
- CC50 ([2]; read-out: CC50, BCP-1): > 10000 nM
- CC50 ([3]; read-out: CC50, BC-1): > 10000 nM
- CC50 ([4]; read-out: CC50, BCBL-1): 7560 nM
- H3K9Ac, H4K9Ac and Acetyl-tubulin protein levels [5]: upregulated
- c-Myc expression [6]: subtle effect

SMILES: Cc1sc2c(c1C)C(c1ccc(Cl)cc1)=N[C@H](CC(=O)O[C@@H](C)c1ccc(C(=O)Nc3ccccc3N)cc1)c1nnc(C)n1-2 [009N2, (S)-1-(4-((2-aminophenyl)carbamoyl)phenyl)ethyl 2-((R)-4-(4-chlorophenyl)-2,3,9-trimethyl-6H-thieno[3,2-f][1,2,4]triazolo[4,3-a][1,4]diazepin-6-yl)acetate]
- CC50 ([1]; read-out: CC50, JSC-1): > 10000 nM
- CC50 ([2]; read-out: CC50, BCP-1): 7680 nM
- CC50 ([3]; read-out: CC50, BC-1): 3120 nM
- CC50 ([4]; read-out: CC50, BCBL-1): 1070 nM
- H3K9Ac, H4K9Ac and Acetyl-tubulin protein levels [5]: upregulated
- c-Myc expression [6]: subtle effect

SMILES: COC(=O)c1ccc([C@@H](C)OC(=O)C[C@@H]2N=C(c3ccc(Cl)cc3)c3c(sc(C)c3C)-n3c(C)nnc32)cc1 [009N3, methyl 4-((R)-1-(2-((S)-4-(4-chlorophenyl)-2,3,9-trimethyl-6H-thieno[3,2-f][1,2,4]triazolo[4,3-a][1,4]diazepin-6-yl)acetoxy)ethyl)benzoate]
- CC50 ([1]; read-out: CC50, JSC-1): 9840 nM
- CC50 ([2]; read-out: CC50, BCP-1): 2430 nM
- CC50 ([3]; read-out: CC50, BC-1): 1470 nM
- CC50 ([4]; read-out: CC50, BCBL-1): 670 nM
- c-Myc expression [6]: drastically downregulated

SMILES: COC(=O)c1ccc([C@H](C)OC(=O)C[C@@H]2N=C(c3ccc(Cl)cc3)c3c(sc(C)c3C)-n3c(C)nnc32)cc1 [009N4, methyl 4-((S)-1-(2-((S)-4-(4-chlorophenyl)-2,3,9-trimethyl-6H-thieno[3,2-f][1,2,4]triazolo[4,3-a][1,4]diazepin-6-yl)acetoxy)ethyl)benzoate]
- CC50 ([1]; read-out: CC50, JSC-1): 2320 nM
- CC50 ([2]; read-out: CC50, BCP-1): 530 nM
- CC50 ([3]; read-out: CC50, BC-1): 340 nM
- CC50 ([4]; read-out: CC50, BCBL-1): 180 nM
- c-Myc expression [6]: drastically downregulated

SMILES: Nc1ccccc1NC(=O)c1ccc(CNC(=O)OCc2cccnc2)cc1 [Entinostat, reference compound]
- CC50 ([1]; read-out: KSHV-infected lymphomas CC50, JSC-1): 150 nM
- CC50 at 72 h [7]: 570 nM
- CC50 ([2]; read-out: KSHV-infected lymphomas CC50, BCP-1): 200 nM
- Cytotoxicity in primary cells HUVEC [8]: moderate cytotoxicity
- CC50 ([3]; read-out: KSHV-infected lymphomas CC50, BC-1): 300 nM
- CC50 ([4]; read-out: KSHV-infected lymphomas CC50, BCBL-1): 170 nM
- CC50 at 72 h [9]: 420 nM
- CC50 [10]: 180 nM
